The values below come from publication PMC12543283, “TastepepAI: An artificial intelligence platform for taste peptide de novo design” (PLOS Computational Biology, 2025).

Series [1] concerns human bronchial epithelial cells (BEAS-2B). In words: Cell viability assessment (CCK-8), BEAS-2B. The conditions noted are these: BEAS-2B cells, CCK-8, mean of Data1-3 (n = 3).
The subject of series [2] is human pancreatic ductal epithelial cells (HPNE). The experiment in a line: Cell viability assessment (CCK-8), HPNE. The note with it: CCK-8, mean of Data1-3 (n = 3).
Series [3] concerns red blood cells from 6-week-old BALB/c mice (mRBCs). In words: Hemolysis assay. Format: cell-based, mouse. The note with it: mean of Data1-3; 100 μM peptide, 1.5 × 10^8 cells/mL mRBCs, 37°C, 60 min, absorbance 490 nm; PBS 0% and 1% Triton X-100 100% controls. The method, then: The hemolytic activity of synthetic peptides was evaluated using red blood cells from 6-week-old BALB/c mice (mRBCs). Freshly isolated mRBCs were washed three times with PBS buffer (8000 rpm, 2 min per wash) to prepare the mRBC suspension. Equal volumes (70 μL) of 200 μM peptide solutions and mRBC suspension were mixed to achieve final concentrations of 100 μM peptide and 1.5 × 10^8 cells/mL mRBCs in the reaction system. After incubation with shaking at 37°C for 60 min, samples were centrifuged at 10000 rpm for 5 min, and hemoglobin release was assessed by measuring the absorbance of the supernatant at 490 nm. PBS and 1% Triton X-100 treatments served as 0% and 100% hemolysis controls, respectively. A complete dataset of hemolytic activity measurements is documented in S4 Data.

For series [4], the system named is human embryonic kidney cells (HEK293T). The experiment in a line: Cell viability assessment (CCK-8), HEK293T. The note with it: CCK-8, mean of Data1-3 (n = 3).
Description: (§1) The cytotoxicity of 73 synthetic peptides was evaluated using four human cell lines: human pancreatic ductal epithelial cells (HPNE), human embryonic kidney cells (HEK293T), human umbilical vein endothelial cells (HUVEC), and human bronchial epithelial cells (BEAS-2B). When cell density reached 70% confluence, the complete culture medium was replaced with serum-free maintenance medium, and peptides were added at a final concentration of 100 μM for 36 h. Control groups received only serum-free maintenance medium without peptides. Cell proliferation was assessed using the CCK-8 assay kit (Solarbio, CA1210) according to the manufacturer’s instructions.
For series [5], the system named is human umbilical vein endothelial cells (HUVEC). The experiment in a line: Cell viability assessment (CCK-8), HUVEC. The conditions noted are these: CCK-8, mean of Data1-3 (n = 3).
Description: as §1
The nature of series [6]: Electronic tongue analysis (Taste-Sensing System SA 402B). Also on record: unit not given here. The conditions noted are these: reference solution 30 mM KCl + 0.3 mM tartaric acid as baseline, first measurement excluded; for Umami: sensor AAE; for Umami / Bitter / Sweet: detection threshold 0, room temperature; for Umami / Bitter / Sour / Salty: four replicates; for Sour: detection threshold -13, room temperature; for Salty: detection threshold -6, room temperature; for Sweet: measured five times. The procedure, abridged:
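Room-temperature electronic-tongue readings with five taste probes, calibrated against a reference of 30 mM KCl and 0.3 mM tartaric acid. Samples at 0.1 mg/mL and 1.0 mg/mL were measured four times, sweetness five times, and the first run was dropped. Detection cut-offs were sour −13, salty −6, others 0.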

The conditions of series [7]: known from earlier studies; cited from earlier work. The source says:
To address these experimental challenges, various computational and artificial intelligence-based approaches for taste peptide identification have emerged. Most reported methods focus on predicting single taste properties, such as BERT4Bitter and iBitter-SCM [42] for bitter peptide identification, while iUmami-SCM [43], Umami-MRNN [[44], iUmami-DRLF [45], and Umami-gcForest are dedicated to umami peptide prediction. Additionally, a few models like Umami_YYDS [35] have been reported to perform binary classification for umami and bitter tastes. However, current methodologie ...

The test system of series [8] is human pancreatic ductal epithelial cells (HPNE).
Series [9] has as its system human embryonic kidney cells (HEK293T).
Description: as §1
For series [10], the system named is human bronchial epithelial cells (BEAS-2B).
Series [11] concerns human umbilical vein endothelial cells (HUVEC).
Description: as §1

Like-named read-outs stand apart in the source and are kept apart here. Ends that are not written are not given here.

Turning to EPDDPDD [TaPep27], in series [1], the “Average cell viability, BEAS-2B” value was 105.85. The “Average cell viability, HPNE” value in [2] was 91.58. The Average hemolysis in series [3] stood at 1.02%. Further, the “Average cell viability, HEK293T” value in series [4] turned out to be 98.49. In [5], the “Average cell viability, HUVEC” value is recorded as 94.52. The results for the Umami in series [6] (peptide 0.1 mg/mL) and in series [6] (peptide 1 mg/mL) were 0.54 and -6.01, respectively. Further, the Bitter in series [6] (sensor C00, peptide 0.1 mg/mL) was determined as 7.42; in [6] (sensor C00, peptide 1 mg/mL) it was 3.79. Besides, the Sour in series [6] (sensor CA0, peptide 0.1 mg/mL) was -0.70; in series [6] (sensor CA0, peptide 1 mg/mL), 14.83. Besides, the Salty in series [6] (sensor CT0, peptide 0.1 mg/mL) is -22.39; in series [6] (sensor CT0, peptide 1 mg/mL), 8.93. Besides, the Sweet in series [6] (sensor GL1, peptide 0.1 mg/mL) is 3.39; in series [6] (sensor GL1, peptide 1 mg/mL), -6.25.

Turning to KGDEESLA, in series [7], the taste characteristics result was “both umami and bitter characteristics”.

For the substance YDGTPLN [TaPep11], in [8], the “Average cell viability, HPNE” value was 100.63; the “Cell viability, HPNE, Data1” value amounted to 98.34; the “Cell viability, HPNE, Data2” value was found to be 113.51; the “Cell viability, HPNE, Data3” value turned out to be 90.05. In series [9], the “Average cell viability, HEK293T” value is recorded as 102.37; the “Cell viability, HEK293T, Data1” value was found to be 107.03; the “Cell viability, HEK293T, Data2” value turned out to be 95.68; the “Cell viability, HEK293T, Data3” value is reported as 104.38. Also, in [10], the “Average cell viability, BEAS-2B” value came out at 102.96; the “Cell viability, BEAS-2B, Data1” value is 102.59; the “Cell viability, BEAS-2B, Data2” value is given as 99.80; the “Cell viability, BEAS-2B, Data3” value was found to be 106.48. Moreover, in series [11], the “Average cell viability, HUVEC” value is on record as 112.96; the “Cell viability, HUVEC, Data1” value amounted to 111.12; the “Cell viability, HUVEC, Data2” value is reported as 113.36; the “Cell viability, HUVEC, Data3” value is listed as 114.40. Moreover, the Umami in [6] (peptide 0.1 mg/mL) is on record as 2.75. Further, the Umami in series [6] (peptide 1 mg/mL) is -2.91. The Bitter in series [6] (sensor C00, peptide 0.1 mg/mL) came to 7.10. Moreover, in series [6] (sensor C00, peptide 1 mg/mL), the Bitter stood at 3.24. Besides, the Sour in [6] (sensor CA0, peptide 0.1 mg/mL) is -5.95. Moreover, in series [6] (sensor CA0, peptide 1 mg/mL), the Sour is listed as 9.08. In addition, the Salty in series [6] (sensor CT0, peptide 0.1 mg/mL) was -21.79. The Salty in series [6] (sensor CT0, peptide 1 mg/mL) was found to be 6.18. Also, the Sweet in series [6] (sensor GL1, peptide 0.1 mg/mL) was 9.69. Moreover, the Sweet in series [6] (sensor GL1, peptide 1 mg/mL) is reported as -5.23.

For the substance YGRGV [TaPep12], in series [8], the “Average cell viability, HPNE” value amounted to 102.90; the “Cell viability, HPNE, Data1” value was found to be 110.82; the “Cell viability, HPNE, Data2” value worked out at 91.75; the “Cell viability, HPNE, Data3” value was 106.12. In series [9], the “Average cell viability, HEK293T” value worked out at 102.93; the “Cell viability, HEK293T, Data1” value is listed as 99.46; the “Cell viability, HEK293T, Data2” value stood at 109.02; the “Cell viability, HEK293T, Data3” value was determined as 100.32. For the same substance, in [10], the “Average cell viability, BEAS-2B” value is recorded as 99.57; the “Cell viability, BEAS-2B, Data1” value turned out to be 102.99; the “Cell viability, BEAS-2B, Data2” value was determined as 93.52; the “Cell viability, BEAS-2B, Data3” value amounted to 102.19. The Average hemolysis in series [3] is recorded as 0.43%. Also, in series [11], the “Average cell viability, HUVEC” value stood at 94.89; the “Cell viability, HUVEC, Data1” value amounted to 90.77; the “Cell viability, HUVEC, Data2” value worked out at 98.75; the “Cell viability, HUVEC, Data3” value came out at 95.16. Moreover, the Umami in [6] (peptide 0.1 mg/mL) is listed as 3.01. Moreover, the Umami in series [6] (peptide 1 mg/mL) was -2.86. Also, the Bitter in series [6] (sensor C00, peptide 0.1 mg/mL) came out at 8.03. In addition, the Bitter in series [6] (sensor C00, peptide 1 mg/mL) is 0.75. The Sour in series [6] (sensor CA0, peptide 0.1 mg/mL) is reported as -6.74. Further, the Sour in [6] (sensor CA0, peptide 1 mg/mL) stood at 6.59. Also, the Salty in series [6] (sensor CT0, peptide 0.1 mg/mL) is recorded as -17.83. Further, the Salty in [6] (sensor CT0, peptide 1 mg/mL) was determined as 7.54. The Sweet in series [6] (sensor GL1, peptide 0.1 mg/mL) turned out to be 7.49. In addition, the Sweet in series [6] (sensor GL1, peptide 1 mg/mL) was -7.92.

On to YKYHES [TaPep13], for which the “Average cell viability, BEAS-2B” value in series [1] was determined as 101.89. Also, in series [2], the “Average cell viability, HPNE” value is 99.43. Further, the Average hemolysis in series [3] worked out at 1.05%. Further, the “Average cell viability, HEK293T” value in [4] came to 95.55. For the same substance, the “Average cell viability, HUVEC” value in series [5] was 104.44. For the same substance, the values for the Umami in series [6] (peptide 0.1 mg/mL) and in series [6] (peptide 1 mg/mL) were 1.81 and -4.92, respectively. The Bitter in [6] (sensor C00, peptide 0.1 mg/mL) is on record as 7.46; in series [6] (sensor C00, peptide 1 mg/mL), -0.78. Besides, the Sour in [6] (sensor CA0, peptide 0.1 mg/mL) is given as -3.77; in [6] (sensor CA0, peptide 1 mg/mL) it was 12.34. Also, the Salty is -15.97 in series [6] (sensor CT0, peptide 0.1 mg/mL) and 15.30 in series [6] (sensor CT0, peptide 1 mg/mL). Also, the Sweet in series [6] (sensor GL1, peptide 0.1 mg/mL) is listed as 3.50; in series [6] (sensor GL1, peptide 1 mg/mL), -4.65.

Consider YQAENKH [TaPep14], for which, in series [8], the “Average cell viability, HPNE” value came to 98.70; the “Cell viability, HPNE, Data1” value came out at 93.34; the “Cell viability, HPNE, Data2” value turned out to be 103.13; the “Cell viability, HPNE, Data3” value came out at 99.63. Besides, in series [9], the “Average cell viability, HEK293T” value stood at 98.23; the “Cell viability, HEK293T, Data1” value is 95.02; the “Cell viability, HEK293T, Data2” value stood at 96.25; the “Cell viability, HEK293T, Data3” value amounted to 103.44. In [10], the “Average cell viability, BEAS-2B” value was 116.78; the “Cell viability, BEAS-2B, Data1” value is recorded as 112.46; the “Cell viability, BEAS-2B, Data2” value is reported as 118.94; the “Cell viability, BEAS-2B, Data3” value is recorded as 118.94. In series [11], the “Average cell viability, HUVEC” value turned out to be 95.42; the “Cell viability, HUVEC, Data1” value came to 102.42; the “Cell viability, HUVEC, Data2” value came to 90.29; the “Cell viability, HUVEC, Data3” value was determined as 93.56. Moreover, the Umami in [6] (peptide 0.1 mg/mL) came to 3.07. Moreover, the Umami in series [6] (peptide 1 mg/mL) is on record as -3.87. Moreover, in [6] (sensor C00, peptide 0.1 mg/mL), the Bitter came to 7.83. For the same substance, the Bitter in series [6] (sensor C00, peptide 1 mg/mL) was found to be 0.38. In addition, in series [6] (sensor CA0, peptide 0.1 mg/mL), the Sour is -6.58. The Sour in series [6] (sensor CA0, peptide 1 mg/mL) was 9.86. The Salty in series [6] (sensor CT0, peptide 0.1 mg/mL) is -18.09. Also, in [6] (sensor CT0, peptide 1 mg/mL), the Salty is recorded as 13.64. Moreover, the Sweet in [6] (sensor GL1, peptide 0.1 mg/mL) turned out to be 7.88. The Sweet in series [6] (sensor GL1, peptide 1 mg/mL) is -4.10.
